Results from patent publication US10842762B2, “Method of treating cardiovascular events using colchicine concurrently with an antiplatelet agent” (Murray and Poole Enterprises, LTD., priority 2012, dated 2020).

Tests used:
[1] = test system: patients with a first episode of recurrent pericarditis; settings: at 18 months; conventional treatment with aspirin plus colchicine (1.0-2.0 mg first day, then 0.5-1.0 mg/d for 6 months); vs 50.6% with conventional treatment; cited from earlier work
[2] = test system: patients with objectively diagnosed and clinically stable coronary disease; experiment: LoDoCo Trial: prospective randomized observer blinded end-point trial of colchicine 0.5 mg/day added to standard secondary prevention therapies
Description: To assess the therapeutic effects of an immediate release formulation in patients with cardiovascular disease, a prospective randomized observer blinded end-point trial was conducted to determine whether adding 0.5 mg/day of colchicine to standard secondary prevention therapies including aspirin and high dose statins reduces the risk of cardiovascular events in patients with objectively diagnosed and clinically stable coronary disease.
Eligible consenting patients with established coronary disease presenting for routine clinical review were randomized to receive colchicine 0.5 mg/day or no colchicine without any other change to their medical therapy. All outcomes were evaluated by an experienced adjudicator blinded to the treatment allocation.
It was planned to recruit a study population that would include 500 patients planned (532 patients randomized as 32 dropped out early), 250 randomized to the control group and 250 patients randomized to treatment who were tolerant of colchicine for at least 4 weeks after the date of their randomization. Patients were eligible for inclusion if they met each of the following criteria: 1) angiographically proven coronary disease; 2) aged 35 to 85 years; 3) clinically stable for at least 6 months, 4) no major competing co-morbidities or contra-indication to colchicine therapy, 5) considered to be compliant with therapy and attending routine cardiology follow up appointments, and 6) willing to be consented and randomized into the study. Patients with a history of bypass surgery were only eligible if they had undergone bypass surgery more than 10 years before, or had angiographic evidence of graft failure or had undergone stenting since their bypass surgery. All patients signed informed consent before randomization.
The randomization sequence was computer generated, kept concealed from the investigators at all times and was managed by a research assistant who had no involvement in the evaluation or management of study patients. […] Despite electing to use the lowest dose of colchicine available, it was anticipated that a number of patients would withdraw from therapy early after randomization due to gastrointestinal side effects. In order to ensure that the requisite number of patients in the treatment arm were actually tolerant of treatment, the protocol allowed for the research assistant to assign a newly recruited patient to treatment if a patient discontinued colchicine due to side effects in the first month. Patients who were intolerant to therapy remained in the study, and were followed in the usual manner and included in the primary intention to treat analysis.
The drug was dispensed by their usual chemist, and if requested, patients were reimbursed for the cost of these scripts. All other treatments were continued as usual.
Patient compliance with treatment and outcome data were collected at routine follow up visits and at the time of any unplanned hospital admission. An acute coronary syndrome (ACS) was defined as either (a) Acute Myocardial Infarction (AMI), as evidenced by acute ischemic chest pain associated with a rise in serum troponin above the upper limit of normal or (b) Unstable Angina (UA), as evidenced by a recent acceleration of the patient's angina unassociated with a rise in serum troponin but associated with angiographic evidence of a change in the patient's coronary anatomy. […] The ACS was characterized as being stent-related if there was evidence of significant in-stent stenosis or acute stent thrombosis. Out of Hospital Cardiac Arrest was defined as either a sudden death as evidenced on the patient's death certificate, or a non-fatal out of hospital cardiac arrest, defined as a recovery from sudden collapse associated with documented asystole, ventricular tachycardia or ventricular fibrillation.

[3] = No treatment (no antithrombotic), n=1
[4] = Treated with Aspirin + clopidogrel + warfarin, n=2
[5] = Treated with Aspirin + clopidogrel, n=33
[6] = Treated with Aspirin + warfarin, n=6
[7] = Treated with Aspirin alone, n=173
[8] = Treated with Clopidogrel alone or warfarin alone (no aspirin), n=28
[9] = Treated with Clopidogrel alone, n=12
[10] = Treated with Warfarin alone, n=16
[11] = Treated with at least aspirin, n=214
[12] = Treated with at least one antiplatelet drug (aspirin, clopidogrel or combinations), n=226
[13] = Treated with at least one antithrombotic drug (aspirin, clopidogrel or warfarin or combinations), n=242
[14] = of 282 randomized to treatment, colchicine 0.5 mg/day

In the case of `COc1cc2c(c(OC)c1OC)-c1ccc(OC)c(=O)cc1[C@@H](NC(C)=O)CC2` [colchicine, N[5,6,7,9-tetrahydro-1,2,3,10-tetratmethoxy 9-oxobenzo[a]heptalen-7-yl],(S)-acetamide], the “recurrence rate (actuarial rate)” value [1] is listed as 24.0%, the “stent related ACS with evidence of acute stent thrombosis, patients” value ([2]; 2 in each group) is listed as 2 and the “stent related ACS with evidence of significant in-stent stenosis, patients” value ([2]; 2 in each group) is listed as 2. For the same compound, the “Primary Outcome, number of patients” value [2, 3] was 0, the “Primary Outcome, percent” value [2, 3] was “(0%)” and the “Primary Outcome, number of patients” value ([2]; Total, colchicine group n=243) was 11. For the same compound, the “Primary Outcome, percent” value ([2]; Total, colchicine group n=243) was “(4.5%)”, the “Primary Outcome, number of patients” value [2, 4] was 0 and the “Primary Outcome, percent” value [2, 4] was “(0%)”. For the same compound, the “Primary Outcome, number of patients” value [2, 5] was 3, the “Primary Outcome, percent” value [2, 5] was “(9%)” and the “Primary Outcome, number of patients” value [2, 6] was 0. The “Primary Outcome, percent” value [2, 6] was “(0%)”, the “Primary Outcome, number of patients” value [2, 7] was 7 and the “Primary Outcome, percent” value [2, 7] was “(4%)”. The “Primary Outcome, number of patients” value [2, 8] was 1, the “Primary Outcome, percent” value [2, 8] was “(3.45%)” and the “Primary Outcome, number of patients” value [2, 9] was 1. For the same compound, the “Primary Outcome, percent” value [2, 9] was “(8.3%)”, the “Primary Outcome, number of patients” value [2, 10] was 0 and the “Primary Outcome, percent” value [2, 10] was “(0%)”. The “Primary Outcome, number of patients” value [2, 11] was 10, the “Primary Outcome, percent” value [2, 11] was “(4.67%)” and the “Primary Outcome, number of patients” value [2, 12] was 11. For the same compound, the “Primary Outcome, percent” value [2, 12] was “(4.9%)”, the “Primary Outcome, number of patients” value [2, 13] was 11 and the “Primary Outcome, percent” value [2, 13] was 4.5%. For the same compound, the “Primary Outcome, percent” value ([2]; Treated with at least one antithrombotic drug (aspirin, clopidogrel or warfarin or combinations), n=242, listed as Colchicine) was “(4.5%)”, the “patients who died of non-cardiac causes” value ([2]; colchicine group, all deaths) was 4 patients and the patients who died ([2]; colchicine group, control group ten) was 4 patients. The “AMI unrelated to stent disease, hazard ratio” value ([2]; colchicine vs control, 95% CI 0.08-0.76, p=0.014) was 0.25, the “UA unrelated to stent disease, hazard ratio” value ([2]; colchicine vs control, 95% CI 0.10-0.75, p=0.011) was 0.27 and the “ACS unrelated to stent disease, hazard ratio” value ([2]; colchicine vs control, 95% CI 0.12-0.55, p<0.001) was 0.26. The “ACS, hazard ratio” value ([2]; colchicine vs control, 95% CI 0.18-0.63, p<0.001) was 0.33, the “primary outcome, number needed to treat” value ([2]; intention-to-treat, colchicine vs control) was 11 and the “primary outcome, hazard ratio” value ([2]; intention-to-treat, colchicine vs control, 95% CI 0.18-0.59, p<0.001) was 0.33. The “primary outcome, percent of patients” value ([2]; intention-to-treat, colchicine 0.5 mg/day, median follow up 36 months, control 16%) was 5.3%, the “primary outcome (ACS, out of hospital cardiac arrest or non-cardio-embolic ischemic stroke), patients with event / patients assigned” value ([2]; intention-to-treat, colchicine 0.5 mg/day, median follow up 36 months, control 40/250) was 15/282 and the “ACS unrelated to stent disease associated with an AMI, percent” value ([2]; intention-to-treat, control 5.6%) was 1.4%. For the same compound, the “ACS unrelated to stent disease, UA, percent” value ([2]; intention-to-treat, control 6.4%) was 1.8%, the “ACS unrelated to stent disease, percent” value ([2]; intention-to-treat, control 12%) was 3.2% and the “patients presenting with an ACS, percent” value ([2]; intention-to-treat, control 13.4%) was 4.6%. For the same compound, the “ACS unrelated to stent disease associated with an AMI, patients / patients assigned” value ([2]; intention-to-treat, control 14/250) was 4/282, the “ACS unrelated to stent disease, UA, patients / patients assigned” value ([2]; intention-to-treat, control 16/250) was 5/282 and the “ACS unrelated to stent disease, patients / patients assigned” value ([2]; intention-to-treat, control 30/250) was 9/282. The “patients presenting with an ACS / patients assigned” value ([2]; intention-to-treat, control 34/250) was 13/282, the “early intolerance due to gastrointestinal side effects, patients” value [2, 14] was 32 and the “early intolerance due to gastrointestinal side effects, percent” value [2, 14] was 11%. For the same compound, the “events (primary outcome), hazard ratio” value ([2]; on-treatment analysis vs control, 95% CI 0.15-0.56, p<0.001) was 0.29, the “events (primary outcome), percent” value ([2]; on-treatment analysis: compliant and tolerant beyond the first month, control 16%) was 4.5% and the “events (primary outcome), patients / patients compliant and tolerant” value ([2]; on-treatment analysis: compliant and tolerant to therapy beyond the first month, control 40/250) was 11/243. For the same compound, the “out of hospital cardiac arrest and non-cardio-embolic ischemic stroke” value ([2]; treatment group vs control, infrequent events) was “also reduced”.
